Data as given in PubChem BioAssay AID588620 (NMMLSC, 2011).
Calls of active or inactive are those of the source.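 Rule for the calls: active = fitted half-maximal concentration below 30 µM for cell fluorescence in pump-free yeast, so likely self-fluorescent; inactive = the rest.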

test: concentration-dependent intrinsic compound fluorescence, S. cerevisiae AD/pABC3, flow cytometry, Cherry Pick1 hits, artefact control for antifungal efflux pump inhibitor project, dose response (AID 588620);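 note: red emission of unstained cells excited at 488 nm measured in PE-Texas Red channel; cell median fluorescence as percent of DMSO wells so 100% equals vehicle baseline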; conditions: S. cerevisiae AD/pABC3 compound autofluorescence, flow cytometry; at 33.1 µM (top of the series)

SMILES | fluorescence response, % of control
Cc1ccc2sc(N(CCCN(C)C)C(=O)c3ccc(Br)s3)nc2c1C | 78.2% (inactive)
CC(C)C(=O)N1CCC2(CC1)Oc1ccc(Cl)cc1C(=O)C21CC(c2ccc(Cl)cc2)=NO1 (configuration not stated) | 111% (inactive)
COc1cc2c(cc1NC(=O)CSc1nnc(Cc3cccs3)n1Cc1ccco1)oc1ccccc12 | 85.8% (inactive)
Cc1cc(C)cc(-n2ncc3c2CCCC3NC(=O)c2cc(C)[nH]n2)c1 (configuration not stated) | 96.3% (inactive)
O=C1Nc2ccccc2/C1=C/c1cnc(-c2ccccc2)[nH]1 | 128% (inactive)
COc1ccc(CNC(=O)C(=O)NCC2OCCN2S(=O)(=O)c2ccc(OC)c(OC)c2)cc1 (configuration not stated) | 99.3% (inactive)
Cc1ccc(C)c(C(=O)COC(=O)c2ccc(C)c(S(=O)(=O)N3CCOCC3)c2)c1 | 93.5% (inactive)
COc1ccc(CNC(=O)C(C)n2nc(C)c3c(C)n(-c4ccc(C)cc4)nc3c2=O)cc1 (configuration not stated) | 77.9% (inactive)
COc1ccc2nccc(/C=C/c3ccnc4ccc(OC)cc34)c2c1 | 126% (inactive)
O=S(=O)(NCCc1cn2ccccc2n1)c1ccc(F)c(C(F)(F)F)c1 | 118% (inactive)
COCCOC(=O)c1c(C)oc2ccc(NS(=O)(=O)c3ccc(F)cc3)cc12 | 90.9% (inactive)
CCn1ncc(Br)c1C(=O)Nc1cc(C)cc(C)c1 | 129% (inactive)
O=c1[nH]c(C2CCN(S(=O)(=O)c3ccc4c(c3)OCCO4)CC2)nc2c1nnn2Cc1ccc(F)cc1 | 94.5% (inactive)
O=C(CCCc1ccccc1)Nc1cccc([N+](=O)[O-])c1 | 86.2% (inactive)
COc1ccc(-c2sc3ccccc3c2-c2ccc(OCCN3CCOCC3)cc2)cc1 | 111% (inactive)
O=C(Nc1ccnc(-c2cccnc2)n1)c1cccc(Cl)c1Cl | 104% (inactive)
Cc1ccc(CSC2=Nc3ccccc3C3=NC(CC(=O)NCc4ccco4)C(=O)N23)cc1 (configuration not stated) | 89% (inactive)
COc1ccc2cc(CN(CC3CCCO3)S(=O)(=O)c3ccc(C(C)=O)cc3)c(=O)[nH]c2c1 (configuration not stated) | 78.2% (inactive)
CCOc1ccc(S(=O)(=O)N(C(=O)c2ccco2)c2cc3sc(=O)oc3c3ccccc23)cc1 | 92.2% (inactive)
COc1ccc(/C=C2\SC(c3ccc(C)cc3)=NC2=O)cc1OC | 289% (inactive)
N#CC(C(=O)NCc1ccccc1)c1nc2ccccc2nc1N1CCCC1 (configuration not stated) | 102% (inactive)

SMILES | fluorescence response, % of control
COc1cccc(CN(CC(=O)NCC2CCCO2)C(=O)CCC(=O)Nc2cc(C)on2)c1 (configuration not stated) | 103% (inactive)
CCOC(=O)c1cccc(NC(=O)c2ccc(NC(=O)c3ccco3)cc2)c1 | 85.8% (inactive)
O=C(CSc1nc2nc3c(cc2c(=O)n1-c1ccccc1)CCCC3)Nc1cccc2ccccc12 | 101% (inactive)
CCCCn1c(N)c(N(CC(C)C)C(=O)CN2C(=O)NC3(CC(C)CC(C)(C)C3)C2=O)c(=O)[nH]c1=O (configuration not stated) | 95.1% (inactive)
Cc1ccc(Cl)cc1N1CCN(c2cccc[n+]2C)CC1 | 95.1% (inactive)
CSCCC(NC(=O)c1ccccc1Cl)C(=O)N1CCN(C(c2ccccc2)c2ccccc2)CC1 (configuration not stated) | 80.9% (inactive)
O=C(Oc1ccc2c(=O)c(Oc3ccc4ccccc4c3)coc2c1)c1cncc(Br)c1 | 90.5% (inactive)
COc1ccc2c(-c3ccc(OCCN4CCCCC4)cc3)c(-c3ccccc3OC)sc2c1 | 102% (inactive)
Nc1cc2c(cc1C(=O)c1cccc(Br)c1)OCCO2 | 92.7% (inactive)
O=C(COC(=O)c1ccc(S(=O)(=O)N2CCCCC2)cc1)NCc1ccco1 | 91.7% (inactive)
NC1=NC[C@H](Cc2ccc(O)cc2)N1CCc1cc(C(F)(F)F)cc(C(F)(F)F)c1 | 83.1% (inactive)
O=C(COC(=O)c1c2ccccc2cc2ccccc12)Nc1ncc(C(F)(F)F)cc1Cl | 96.4% (inactive)
CCC(=O)NC(c1ccco1)c1cc(Cl)c2cccnc2c1O (configuration not stated) | 99.8% (inactive)
COCCn1c(=S)[nH]c2sc3c(c2c1=O)CCCC3 | 91.7% (inactive)
Cc1ccc(CN2C(=O)C(CC(C)C)Nc3ncnc(N4CCN(c5ccccc5)CC4)c32)cc1 (configuration not stated) | 102% (inactive)
O=C(c1ccc2c(c1)OCO2)N1CCC2(CC1)Oc1ccc(F)cc1C(=O)C21CC(c2ccc(Cl)cc2)=NO1 (configuration not stated) | 165% (inactive)
CC(C)(C)c1ccc(-n2ncc3c2CCCC3NC(=O)c2cnccn2)cc1 (configuration not stated) | 90.8% (inactive)
COc1cccc(-c2sc3ccc(OC)cc3c2-c2ccc(OCCN(C)C)cc2)c1 | 126% (inactive)
COc1ccc(Cn2nnc3c(=O)[nH]c(C4CCN(S(=O)(=O)c5ccc(C)cc5)CC4)nc32)cc1 | 95.7% (inactive)
COc1cc(OC)cc(-c2sc3ccc(OC)cc3c2-c2ccc(OCCN3CCOCC3)cc2)c1 | 111% (inactive)
NC(=S)NNC(=O)[C@@H]1CCCC[C@@H]1C(=O)O | 117% (inactive)

SMILES | fluorescence response, % of control
Cc1ccc(C(=O)N2CCC3(CC2)Oc2ccc(Cl)cc2C(=O)C32CC(c3cccnc3)=NO2)s1 (configuration not stated) | 127% (inactive)
CCc1ccc(N=C2NC(=O)/C(=C/c3cc(OC)c(O)c(OC)c3)S2)cc1 | 419% (inactive)
COc1ccccc1-c1sc2cc3c(cc2c1-c1ccc(OCCN2CCOCC2)cc1)OCO3 | 87.6% (inactive)
COc1ccccc1CNS(=O)(=O)c1ccc2c(c1)CC(C)N2C(=O)C1CCC1 (configuration not stated) | 85.7% (inactive)
CCc1ccc(C2=NN(S(C)(=O)=O)C(c3cccs3)C2)cc1 (configuration not stated) | 113% (inactive)
COc1ccc(NC(=O)Nc2cccc3c2O[C@H](CN(C)C(=O)NC2CCCCC2)[C@@H](C)CN([C@H](C)CO)C3=O)cc1 | 80.3% (inactive)
CCSc1cc(N2CCOCC2)nc(-c2ccccc2)n1 | 89.7% (inactive)
COc1ccc(-c2ccc3c(c2)S(=O)(=O)c2cccc(C(=O)NC4CCCCC4)c2C3=O)cc1OC | 106% (inactive)
Cc1cc(Cl)c(OCCCn2ccnc2)c(Br)c1 | 83.7% (inactive)
Cc1cc(C(=O)NC2CC(C)(C)Cc3c2cnn3-c2cccc(F)c2)n(C)n1 (configuration not stated) | 82.7% (inactive)
O=[N+]([O-])c1cnc2ccc3ccccc3c2c1 | 122% (inactive)
CCCCn1c(=N)n(CC(O)COc2ccc(C)cc2)c2ccccc21 (configuration not stated) | 106% (inactive)
Cc1ccc(CN2C(=O)C(Cc3ccccc3)Nc3ncnc(N4CCN(c5ccccc5)CC4)c32)cc1 (configuration not stated) | 111% (inactive)
O=C(NC1CCCCC1)c1cc2ccccc2cc1O | 78.8% (inactive)
O=[N+]([O-])c1cc(/C=N\Nc2ccccn2)ccc1Cl | 96.1% (inactive)
NC1=NC[C@@H](Cc2ccc(O)cc2)N1CCCCC1CCCCC1 | 93.4% (inactive)
CC(C)c1ccc(C(=O)NC(=S)Nc2ccc3[nH]c(=O)[nH]c3c2)cc1 | 158% (inactive)
CC(C)C(=O)N1CCC2(CC1)Oc1ccc(F)cc1C(=O)C21CC(c2ccccc2)=NO1 (configuration not stated) | 115% (inactive)
CCOc1cccc(-c2nc(C(N)=O)c3[nH]c(=O)n(-c4cccc(Cl)c4)c3n2)c1O | 102% (inactive)
COc1ccc(S(=O)(=O)N2CCCCC2)cc1NC(=O)c1ccc(CS(C)(=O)=O)cc1 | 99.1% (inactive)
COc1ccc(C2c3ccc4ccccc4c3Oc3ncn(CCN4CCOCC4)c(=N)c32)cc1 (configuration not stated) | 135% (inactive)

SMILES | fluorescence response, % of control
CCOC(=O)CC(=O)c1cc(OC)c(OC)c(OC)c1 | 96.1% (inactive)
COC(=O)c1ccc(S(=O)(=O)NCc2ccc(OC)cc2)n1C | 96.9% (inactive)
O=C(c1ccc2c(c1)OCO2)N1CCC2(CC1)Oc1ccc(F)cc1C(=O)C21CC(c2ccccc2)=NO1 (configuration not stated) | 139% (inactive)
CCOc1ccc(C(=O)Nc2cccc(-c3cc4ccccc4oc3=O)c2)cc1[N+](=O)[O-] | 94.4% (inactive)
NC(=O)c1nc(-c2cccs2)nc2c1[nH]c(=O)n2-c1ccc(F)cc1 | 93.5% (inactive)
COc1ccc(/C=c2\s/c(=C/C(=O)c3ccc(C)cc3)[nH]c2=O)c(OC)c1 | 98.7% (inactive)
CN(C(=O)c1ccc(NC(=O)c2ccco2)cc1)c1ccccc1 | 105% (inactive)
CC1(C)Cc2c(sc(NC(=O)COc3ccc(Cl)cc3Cl)c2C(N)=O)C(C)(C)N1 | 86% (inactive)
O=C(C1CCC1)N1CCc2cc(S(=O)(=O)Nc3ccc4c(c3)OCCO4)ccc21 | 116% (inactive)
Cc1ccc(-c2cc(C(=O)Nc3ccc(S(=O)(=O)Nc4onc(C)c4C)cc3)c3ccccc3n2)cc1 | 88.3% (inactive)
COc1ccc(-c2nc3ccccc3c(=O)n2CCOc2cc(C)ccc2C)cc1 | 135% (inactive)
C[C@@]12C(=O)Nc3ccc(F)cc3C(=O)N1[C@H]1c3cc(Cl)ccc3OC[C@@H]1[C@@H]2c1ccccc1 | 104% (inactive)
CCCCCCCCn1ccc(=N)cc1 | 102% (inactive)
CCCCCCCCCC[N+](C)(C)CC/C=C1/c2ccccc2Sc2ccc(Cl)cc21 | 105% (inactive)
CCC(=O)N1CCN(c2ccc(Cl)cc2NC(=O)c2ccc3c(c2)OCCO3)CC1 | 99.8% (inactive)
COc1ccc2[nH]c3c(C)c4cc[n+](C)cc4c(C)c3c2c1 | 153% (inactive)
Cc1ccc(Cn2nnc3c(=O)[nH]c(C4CCN(S(=O)(=O)c5ccccc5)CC4)nc32)cc1 | 87.4% (inactive)
O=C(NC1CCCc2c1cnn2-c1ccccc1F)c1ccccn1 (configuration not stated) | 81.2% (inactive)
CCC(Sc1nc2cc(OC)c(OC)cc2c(=O)n1CCc1ccc(OC)c(OC)c1)C(=O)NCCOC (configuration not stated) | 83.6% (inactive)
